According to patent US20050154537A1, “Methods, program products, and systems for single and multi-agent dosing and other related methods” (priority 2003, published 2005):

Key:
Neutrophil Count (ANC) [1] = test: Chemotherapeutic triplet cycle dose modifier (Taxol, Gemzar, Carboplatin), toxicity marker; type: in vivo; conditions: patient on triplet
Description: Table 3 illustrates a method of revising a drug dose in treating a patient with three pharamcologic and non-pharmacological modalities to optimize pharmacologic outcome, e.g., to reduce risk of an adverse drug event while assessing the clinical relevancy and validity of the measured surrogate markers. Previous Level of Toxicity-Efficacy (PLTE) is a value directly entered such as from a lab report. It is the numerical value of the marker of toxicity or efficacy reported at the previous dose cycle adjustment (evaluated at a specified elapsed time sufficient to capture the nadir of the dose effect). The surrogate marker is selected when the dose modifier is constructed. Current Level of Toxicity-Efficacy (CLTE) is a value directly entered such as from a lab report. It is the numerical value of the marker of toxicity or efficacy reported with the current dose cycle. The surrogate marker is that value that illustrates the expression of the toxicity or efficacy of the agent on a specific and pre-selected value determined when the dose modifier is constructed. […] If valid the value is fully appreciated and the dose modification can be calculated. […] The range, in days and indicated as the Lower Limit and Upper limit, has been determined by calculating a percentage (20%) above and below the true nadir value when only a single value is known. […]

Neutrophil Count (ANC) [2] = test: Lookup table: marker validity (nadir) window, Neutrophil Count (ANC); type: in vivo; conditions: days elapsed between current dose and marker
Description: A lookup table has been constructed (see above example), in the form of a table, to represent the relationship of each trial Agent and its qualified Clinical Markers. This table includes information regarding the Maximum Dose and the Inverse Marker Applicability for each Agent. The gray cells on the Cycle Dose Modifier indicate these values.
The table also includes information regarding the nadir of applicability for each Agent—Marker combination. The range, in days and indicated as the Lower Limit and Upper limit, has been determined by calculating a percentage (20%) above and below the true nadir value when only a single value is known. Otherwise, the upper and lower nadir values are used. […] The values of Upper and Lower limits is shown as a property of the Association between Markers and Agents. The Relevancy of a Marker can be computed using the lookup table by comparing the number of days elapsed between the date of the application of the current dose and the date on which the Marker was taken to the upper and lower values for that Agent Marker Association. If the elapsed days are greater than or equal to the lower limit and less than or equal to the upper limit, then the calculations provided by the Cycle Dose Modifier are said to be relevant and thereby applicable as indicated in the yellow Marker Validity cell. The Relevancy of Cycle Dose Modifier Calculations for Agent 1 is based on the Validity of Marker for Agent 1 calculated by: =IF(and((($B13−B6)>=VLOOKUP(B$3,Validity!$A$3:$K$8,10)),((B$13−B6)<=VLOOKUP(B$3,Validity!$A$3:$K$8,11))),“valid”,“invalid”)

Neutrophil Count (ANC) LL (Neutrophil Count (ANC) [2]; lower limit of nadir range): 8 days | Neutrophil Count (ANC) UL (Neutrophil Count (ANC) [2]; upper limit of nadir range): 11 days
SMILES: CC(=O)O[C@H]1C(=O)[C@@]2(C)[C@H]([C@H](OC(=O)c3ccccc3)[C@]3(O)C[C@H](OC(=O)[C@H](O)[C@@H](NC(=O)c4ccccc4)c4ccccc4)C(C)=C1C3(C)C)[C@]1(OC(C)=O)CO[C@@H]1C[C@@H]2O [Taxol]
Current Level of Toxicity/CLTEM1 (Neutrophil Count (ANC) [1]; current cycle total dose Taxol 450.00, Gemzar 7000.00, Carboplatin 650.00, marker Oct. 30, 2004): 0.80 | Previous Level of Toxicity/PLTEM1 (Neutrophil Count (ANC) [1]; previous cycle total dose Taxol 400.00, Gemzar 8000.00, Carboplatin 600.00): 0.40
